Results as given in ChEMBL document CHEMBL3045512, “Synthesis of some novel triazoloquinazolines and triazinoquinazolines and their evaluation for anti-inflammatory activity” (Med Chem Res, 2012).

What was measured:
Mus musculus [1] = assay: Toxicity in Mus musculus albino (mouse) assessed as GPx activity per gram of Hb at 300 mg/kg, po for 10 days (Rvb =179.16 +/- 10.45 U/g Hb); assay type: organism-based; set-up: dose 300 mg/kg, route oral; conditions: in vivo, 240 h
Mus musculus [2] = assay: Toxicity in Mus musculus albino (mouse) assessed as SOD activity per gram of Hb at 300 mg/kg, po for 10 days (reference value: 12.7+/- 2.08 U/g Hb); assay type: organism-based; set-up: dose 300 mg/kg, route oral; conditions: in vivo, 240 h
Mus musculus [3] = assay: Toxicity in Mus musculus albino (mouse) assessed as GSH activity at 300 mg/kg, po for 10 days (reference value: 59.57 +/- 5.10 %); assay type: organism-based; set-up: dose 300 mg/kg, route oral; conditions: in vivo, 240 h
Mus musculus [4] = assay: Toxicity in Mus musculus albino (mouse) assessed as serum TBARS level at 300 mg/kg, po for 10 days (reference value: 4.35 +/- 0.86 U/l); assay type: organism-based; set-up: dose 300 mg/kg, route oral; conditions: in vivo, 240 h
Mus musculus [5] = assay: Toxicity in Mus musculus albino (mouse) assessed as serum LDH level at 300 mg/kg, po for 10 days (reference value: 217.84 +/- 13.36 U/l); assay type: organism-based; set-up: dose 300 mg/kg, route oral; conditions: in vivo, 240 h
Mus musculus [6] = assay: Toxicity in Mus musculus albino (mouse) assessed as serum gamma-glutamyl transferase level at 300 mg/kg, po for 10 days (reference value: 4.43 +/- 0.31 U/l); assay type: organism-based; set-up: dose 300 mg/kg, route oral; conditions: in vivo, 240 h
Mus musculus [7] = assay: Toxicity in Mus musculus albino (mouse) assessed as serum ALP level at 300 mg/kg, po for 10 days (reference value: 31.63 +/- 3.73 U/l); assay type: organism-based; set-up: dose 300 mg/kg, route oral; conditions: in vivo, 240 h
Mus musculus [8] = assay: Toxicity in Mus musculus albino (mouse) assessed as serum SGPT level at 300 mg/kg, po for 10 days (reference value: 35.82 +/- 5.26 U/l); assay type: organism-based; set-up: dose 300 mg/kg, route oral; conditions: in vivo, 240 h
Mus musculus [9] = assay: Toxicity in Mus musculus albino (mouse) assessed as serum SGOT level at 300 mg/kg, po for 10 days (reference value: 9.74 +/- 1.73 U/l); assay type: organism-based; set-up: dose 300 mg/kg, route oral; conditions: in vivo, 240 h
Mus musculus [10] = assay: Toxicity in Mus musculus albino (mouse) assessed as drop in temperature at extremeties at 70 to 410 mg/kg, ip; assay type: organism-based; set-up: dose 70-410 mg/kg, route intraperitoneal; conditions: in vivo
Mus musculus [11] = assay: Toxicity in Mus musculus albino (mouse) assessed as bluish toe at 70 to 410 mg/kg, ip; assay type: organism-based; set-up: dose 70-410 mg/kg, route intraperitoneal; conditions: in vivo
Mus musculus [12] = assay: Toxicity in Mus musculus albino (mouse) assessed as bluish skin at 70 to 410 mg/kg, ip; assay type: organism-based; set-up: dose 70-410 mg/kg, route intraperitoneal; conditions: in vivo
Mus musculus [13] = assay: Toxicity in Mus musculus albino (mouse) assessed as brownish eye mucus at 70 to 410 mg/kg, ip; assay type: organism-based; set-up: dose 70-410 mg/kg, route intraperitoneal; conditions: in vivo
Mus musculus [14] = assay: Toxicity in Mus musculus albino (mouse) assessed as tremor inhind limbs at 70 to 410 mg/kg, ip; assay type: organism-based, Limb; set-up: dose 70-410 mg/kg, route intraperitoneal; conditions: in vivo
Mus musculus [15] = assay: Toxicity in Mus musculus albino (mouse) assessed as general depression at 70 to 410 mg/kg, ip; assay type: organism-based; set-up: dose 70-410 mg/kg, route intraperitoneal; conditions: in vivo
Mus musculus [16] = assay: Toxicity in Mus musculus albino (mouse) assessed as increase in heart rate at 70 to 410 mg/kg, ip; assay type: organism-based; set-up: dose 70-410 mg/kg, route intraperitoneal; conditions: in vivo
Mus musculus [17] = assay: Toxicity in Mus musculus albino (mouse) assessed as rapid respiration at 70 to 410 mg/kg, ip; assay type: organism-based; set-up: dose 70-410 mg/kg, route intraperitoneal; conditions: in vivo
Mus musculus [18] = assay: Toxicity in Mus musculus albino (mouse) assessed as drop in temperature at extremeties at 80 to 375 mg/kg, ip; assay type: organism-based; set-up: dose 80-375 mg/kg, route intraperitoneal; conditions: in vivo
Mus musculus [19] = assay: Toxicity in ip dosed Mus musculus albino (mouse) assessed as mortality measured per gram body weight; assay type: organism-based; conditions: in vivo
Mus musculus [20] = assay: Anti-inflammatory activity in Mus musculus albino (mouse) assessed as inhibition of formalin-induced paw swelling at 30 mg/kg, po administered 30 min prior formalin challenge measured after 120 min post challenge (reference value: 9.83 +/- 0.071 mm/min); assay type: functional
Mus musculus [21] = assay: Anti-inflammatory activity in Mus musculus albino (mouse) assessed as inhibition of formalin-induced paw swelling at 30 mg/kg, po administered 30 min prior formalin challenge measured after 90 min post challenge (reference value: 9.5 +/- 0.04 mm/min); assay type: functional
Mus musculus [22] = assay: Anti-inflammatory activity in Mus musculus albino (mouse) assessed as inhibition of formalin-induced paw swelling at 30 mg/kg, po administered 30 min prior formalin challenge measured after 60 min post challenge (reference value: 9.73 +/- 0.06 mm/min); assay type: functional
Mus musculus [23] = assay: Anti-inflammatory activity in Mus musculus albino (mouse) assessed as inhibition of formalin-induced paw swelling at 30 mg/kg, po administered 30 min prior formalin challenge measured after 30 min post challenge (reference value: 9.46 +/- 0.035 mm/min); assay type: functional
Mus musculus [24] = assay: Toxicity in Mus musculus albino (mouse) assessed as bluish toe at 80 to 375 mg/kg, ip; assay type: organism-based; set-up: dose 80-375 mg/kg, route intraperitoneal; conditions: in vivo
Mus musculus [25] = assay: Toxicity in Mus musculus albino (mouse) assessed as bluish skin at 80 to 375 mg/kg, ip; assay type: organism-based; set-up: dose 80-375 mg/kg, route intraperitoneal; conditions: in vivo
Mus musculus [26] = assay: Toxicity in Mus musculus albino (mouse) assessed as brownish eye mucus at 80 to 375 mg/kg, ip; assay type: organism-based; set-up: dose 80-375 mg/kg, route intraperitoneal; conditions: in vivo
Mus musculus [27] = assay: Toxicity in Mus musculus albino (mouse) assessed as tremor inhind limbs at 80 to 375 mg/kg, ip; assay type: organism-based, Limb; set-up: dose 80-375 mg/kg, route intraperitoneal; conditions: in vivo
Mus musculus [28] = assay: Toxicity in Mus musculus albino (mouse) assessed as general depression at 80 to 375 mg/kg, ip; assay type: organism-based; set-up: dose 80-375 mg/kg, route intraperitoneal; conditions: in vivo
Mus musculus [29] = assay: Toxicity in Mus musculus albino (mouse) assessed as rapid respiration at 80 to 375 mg/kg, ip; assay type: organism-based; set-up: dose 80-375 mg/kg, route intraperitoneal; conditions: in vivo
Mus musculus [30] = assay: Toxicity in Mus musculus albino (mouse) assessed as increase in heart rate at 80 to 375 mg/kg, ip; assay type: organism-based; set-up: dose 80-375 mg/kg, route intraperitoneal; conditions: in vivo

| Structure (SMILES) | Activity (Mus musculus [1]) [U/g Hb] | Activity (Mus musculus [2]) [U/g Hb] | Activity (Mus musculus [3]) [%] | Activity (Mus musculus [4]) [nmol/mL] | Activity (Mus musculus [5]) [U/L] | Activity (Mus musculus [6]) [U/L] | Activity (Mus musculus [7]) [U/L] | Activity (Mus musculus [8]) [U/L] | Activity (Mus musculus [9]) [U/L] | Activity (Mus musculus [19]) [millimeter/min] | Activity (Mus musculus [20]) [millimeter/min] | Activity (Mus musculus [21]) [millimeter/min] | Activity (Mus musculus [22]) [millimeter/min] | Activity (Mus musculus [23]) [millimeter/min] | other results |
| --- | --- | --- | --- | --- | --- | --- | --- | --- | --- | --- | --- | --- | --- | --- | --- |
| CC(=O)NS(=O)(=O)c1ccc(-n2c(-c3ccccc3O)nn3c(=O)c4ccccc4nc23)cc1 | 180 | 12.4 | 60.12 | 4.11 | 211.27 | 4.36 | 33.26 | 28.44 | 11.1 | 213.25 | 6.02 | 6.83 | 6.11 | 6.43 | Activity (Mus musculus [10]): Toxic; Activity (Mus musculus [11]): Toxic; Activity (Mus musculus [12]): Toxic; Activity (Mus musculus [13]): Toxic; Activity (Mus musculus [14]): Toxic; Activity (Mus musculus [15]): Toxic; Activity (Mus musculus [16]): Toxic; Activity (Mus musculus [17]): Toxic; Activity (Mus musculus [18]): Toxic |
| COc1ccccc1/C=N/n1c(Nc2ccc(S(N)(=O)=O)cc2)nc2ccccc2c1=O | 183 | 13.1 | 61.45 | 3.97 | 205.65 | 4.12 | 30.01 | 33.65 | 10.7 | 222.25 | 6.5 | 7.19 | 7.78 | 7.76 | Activity (Mus musculus [24]): Toxic; Activity (Mus musculus [25]): Toxic; Activity (Mus musculus [26]): Toxic; Activity (Mus musculus [27]): Toxic; Activity (Mus musculus [28]): Toxic; Activity (Mus musculus [29]): Toxic; Activity (Mus musculus [30]): Toxic |
